# Test results: patent publication US20090137517A1, “SENSITIZING A CELL TO CANCER TREATMENT BY MODULATING THE ACTIVITY OF A NUCLEIC ACID ENCODING RPS27L PROTEIN” (Agency for Science, Technology and Research, priority 2006, published 2009)
# Columns and labels:
# Assay type in all cases: cell-based, human
# [1] = system: RPS27L protein; test: Western blot of RPS27L protein levels in HCT116 cells; conditions: ADR (1 μM), 5-FU (375 μM), nutlin-3 (10 μM)
# Procedure: (§1) To investigate whether the p53-induced increase in RPS27L mRNA also gives rise to the increased protein levels, immunoblot analysis of p53 wild-type and p53 null HCT116 cells treated with ADR, 5-FU or nutlin-3, a small molecule MDM2 antagonist that directly activates p53 (Vassilev, L. T., Vu, B. T., et al. (2004) “In vivo activation of the p53 pathway by small-molecule antagonists of MDM2” Science, vol. 303, p. 844-848) was performed. […] To extend this observations to other cell lines and to other p53 stimuli, U2OS (human osteosarcoma cell line) and SH-SY5Y (human neuroblastoma cell line) cells (p53 wild type) as well as Saos-2 cells (human osteosarcoma cell line, p53-deficient) were treated with ADR, etoposide phosphate (VP16®) and 5-FU (FIG. 2B). […] Obviously, 5-FU treatment activates a posttranslational mechanism that causes RPS27L protein downregulation in spite of the increased mRNA expression.
# (§2) Cells were harvested and lysed with RIPA buffer (50 mM Tris-HCl, pH7.4, 1 mM EDTA, 150 mM NaCl, 1% Nonidet P-40, 0.5% sodium deoxycholate and proteinase inhibitors). The lysates were clarified by centrifugation at 16,000×g for 15 minutes at 4° C. Protein concentrations were determined with the Bradford Protein Assay Kit (Bio-Rad). 20-50 μg protein samples were separated by SDS-PAGE, transferred onto an Immobilon membrane (Millipore) and blotted with antibodies. Anti-p53 and anti-p21 antibodies were from Santa Cruz; anti-MDM2 and anti-Puma antibodies were from Merck. The rabbit polyconal antibody to RPS27L was raised against a 14 amino acid peptide from human RPS27L (SEQ ID NO: 2: LHPSLEEEKKKHKK).
# [2] = system: HCT116 cells; test: Cell cycle and apoptosis analysis by flow cytometry (sub-G1 DNA content)
# Procedure: (§3) Cells cycle analysis was performed by DNA content quantification. The cells were fixed with 70% ethanol and stained with propidium iodide (50 μg/ml) staining. The stained cells were analyzed by FACScalibur (BD Bioscience). For the BrdU incorporation assay and mitochondrial membrane potential detection, the BrdU Flow Kit and JC-1 staining kit (both from BD Bioscience) were used, respectively, following the instruction manual. Stained cells were analyzed by FACScalibur (BD Bioscience) and quantified by using CellQuest software (BD Bioscience).
# [3] = system: p53 and p21; test: Western blot of p53 and p21 protein levels in HCT116 cells; conditions: ADR (1 μM), 5-FU (375 μM), nutlin-3 (10 μM)
# Procedure: as §1, §2
# [4] = system: RPS27L protein; test: Western blot of RPS27L protein in U2OS, SH-SY5Y and Saos-2 cells; conditions: U2OS and SH-SY5Y (p53 wild type), Saos-2 (p53-deficient); VP16 (10 μM), ADR (1 μM), 5-FU (375 μM)
# Procedure: as §1, §2
# [5] = system: RPS27L mRNA; test: RT-PCR of RPS27L mRNA after drug treatment of HCT116 cells; conditions: p53 wild-type HCT116 cells; ADR (1 μM) or 5-FU (375 μM); not in p53 null cells
# Excerpt: FIG. 1A depicts the microarray analysis showing a set of genes whose expression was induced by the DNA damaging agents adriamycin (ADR) and 5-fluorouracil (5-FU) in p53 wild-type HCT116 cells (human colorectal carcinoma cell line containing wild type p53) but not in the p53 null counterpart. In both treatments, RPS27L, together with bona fide p53 targets such as cdkn1a (encodes p21), Pmaid (encodes Noxa) and ccd3 (encodes Puma), was unregulated in a p53-dependent manner. To validate the microarray data, RT-PCR analysis was performed (FIG. 1B).
# The human colon carcinoma cell line HCT116 and its p53 knock-out derivate cells were kindly provided by Dr. Bert Vogelstein. HCT116 cells can also be purchased under the ATCC number: CCL 247. The human osteosarcoma cell lines U2OS and Saos-2 can be purchased under the following ATCC numbers: U2OS, ATCC HTB-96; Saos-2, ATCC HTB-85 and SH-SY5Y, ATCC CRL-2266. Cells were grown in DMEM supplemented with 10% fetal bovine serum and penicillin-streptomycin (Invitrogen). Adriamycin, etoposide phosphate (VP16®) and 5-fluorouracil were purchased from Sigma-Aldrich.
# (§4) All RT-PCR was performed using the Titanium One Step RT-PCR Kit (BD Clontech).
# [6] = system: HCT116 cells; test: γ-H2AX focus formation, immunofluorescence and confocal microscopy
# Procedure: A deficient DNA damage checkpoint is expected to increase DNA damage. γ-H2AX foci are considered to be sensitive indicators of double strand breaks (DSB). We looked for γ-H2AX focus formation after etoposide phosphate (VP16®) treatment and monitored the reversibility post-VP16 washout.
# The cells were seeded in 4-well or 8-well culture slides. After treatment, cells were fixed with 3.7% paraformaldehyde in PBS and permeabilized with 0.2% Triton-X100. Cells were sequentially incubated with primary antibodies (see above under “Protein Analysis and Generation of Anti-RPS27L Antibody”) and Alexa Fluor 488 or Alexa Fluor 546-conjugated secondary antibodies (Invitrogen) for 1 hour each and mounted in Fluorsave (Merck) mounting medium. DRAQ5 (Biostats, UK) was diluted in mounting medium for nuclear staining. The stained cells were examined by Zeiss LSM510 confocal microscopy.
# [7] = system: RPS27; test: Specificity of RPS27L siRNA, RT-PCR of RPS27; conditions: HCT116 cells transfected with siRNA, then VP16 (10 μM)
# Procedure: (§5) The siRNA oligo targeting RPS27L (SEQ ID NO: 1: ggttgctacaagattacta was purchased from Proligo, and transfection was conducted using Lipofectamine 2000 (Invitrogen) according to the manufacturer's information. To generate stable knock-down cell lines, the siRNA sequences were cloned into the pSIREN-RetroQ retroviral expression vector (BD Bioscience) according to the manufacturer's instruction. Virally infected cells were selected in a medium containing 2 μg/ml puromycin and individual drug-resistant clones were collected, pooled and expanded.
# as §4
# [8] = system: RPS27L; test: RPS27L gene silencing by RNA interference, RT-PCR; conditions: HCT116 cells transfected with siRNA, then VP16 (10 μM)
# Procedure: as §5, §4
# [9] = system: HCT116 cells; test: JC-1 staining, mitochondrial membrane potential by flow cytometry; conditions: RPS27L shRNA HCT116 cells, ADR treatment
# Procedure: To further define the nature of this cell death response the inventors used another assay, namely flow cytometric detection of cells stained with JC-1. The JC-1-staining identifies cell death events as a result of loss of mitochondria membrane potential (ΔΨm).
# as §3
compound,measurement,setting,value
"O=c1[nH]cc(F)c(=O)[nH]1 [5-FU, 5-fluorouracil]",RPS27L protein level,[1],downregulated
same,cell cycle and apoptosis response,"[2]; HCT116 p53+/+ and p53−/−, ADR (1 μM) or 5-FU (375 μM) for 48 h",p53-dependent apoptosis
same,p53 and p21 protein,[3],increased p21 protein expression
same,RPS27L protein level,[4],downregulation
same,RPS27L mRNA,[5],induced
"COc1cc([C@@H]2c3cc4c(cc3[C@@H](O[C@@H]3O[C@@H]5CO[C@@H](C)O[C@H]5[C@H](O)[C@H]3O)[C@H]3COC(=O)[C@H]23)OCO4)cc(OC)c1OP(=O)(O)O [etoposide phosphate (VP16®), etoposide phosphate]",DSB foci (γ-H2AX staining) after treatment,"[6]; HCT116 cells, VP16 (20 μM)",prominent DSB foci
same,γ-H2AX staining after VP16 removal,"[6]; RPS27L-depleted HCT116 cells, after VP16 removal",sustained γ-H2AX staining
same,γ-H2AX staining after VP16 removal,"[6]; control HCT116 cells, by 16 hours after VP16 removal",almost undetectable
same,RPS27L protein level,[4],p53-dependent upregulation of RPS27L protein
"RPS27L siRNA: siRNA oligo targeting RPS27L, SEQ ID NO: 1: ggttgctacaagattacta, purchased from Proligo (GGTTGCTACAAGATTACTA; listed as DNA, chemistry not given here)",cell death (sub-G1 DNA content),"[2]; HCT116 cells, transient siRNA transfection, then ADR (1 μM) 24 h",marked increase in cell death
same,cell death (sub-G1 DNA content),"[2]; HCT116 cells, transient siRNA transfection, then etoposide phosphate (VP16) (10 μM) 24 h",marked increase in cell death
same,cell death (sub-G1 DNA content),"[2]; p53 null HCT116 cells, transient siRNA transfection, then ADR or VP16",not in p53 null counterparts
same,effect on closely-related RPS27 (mRNA),[7],no effect
same,RPS27L expression (mRNA),[8],nearly completely ablated
"RPS27L shRNA: short hairpin of SEQ ID NO: 1 to deplete RPS27L, stably expressed in HCT116 from pSIREN-RetroQ retroviral vector (guide GGTTGCTACAAGATTACTA)",cell death (sub-G1 DNA content),"[2]; p53 wild-type HCT116 stably expressing RPS27L shRNA, ADR (1 μM) 48 h",marked cell death
same,percentage of cells with lower membrane potential (ΔΨm),[9],33.5%
COc1ccc(C2=N[C@@H](c3ccc(Cl)cc3)[C@@H](c3ccc(Cl)cc3)N2C(=O)N2CCNC(=O)C2)c(OC(C)C)c1 [nutlin-3],RPS27L protein level,[1],increased RPS27L protein levels
same,p53 and p21 protein,[3],accumulation of p53 and p21
